We go through four compounds from ChEMBL document CHEMBL2150911, “Charting, navigating, and populating natural product chemical space for drug discovery” (J Med Chem, 2012).

In test [1] the target is T1, Polyunsaturated fatty acid 5-lipoxygenase (Homo sapiens, UniProt P09917).
T1 sequence (P09917 whole entry): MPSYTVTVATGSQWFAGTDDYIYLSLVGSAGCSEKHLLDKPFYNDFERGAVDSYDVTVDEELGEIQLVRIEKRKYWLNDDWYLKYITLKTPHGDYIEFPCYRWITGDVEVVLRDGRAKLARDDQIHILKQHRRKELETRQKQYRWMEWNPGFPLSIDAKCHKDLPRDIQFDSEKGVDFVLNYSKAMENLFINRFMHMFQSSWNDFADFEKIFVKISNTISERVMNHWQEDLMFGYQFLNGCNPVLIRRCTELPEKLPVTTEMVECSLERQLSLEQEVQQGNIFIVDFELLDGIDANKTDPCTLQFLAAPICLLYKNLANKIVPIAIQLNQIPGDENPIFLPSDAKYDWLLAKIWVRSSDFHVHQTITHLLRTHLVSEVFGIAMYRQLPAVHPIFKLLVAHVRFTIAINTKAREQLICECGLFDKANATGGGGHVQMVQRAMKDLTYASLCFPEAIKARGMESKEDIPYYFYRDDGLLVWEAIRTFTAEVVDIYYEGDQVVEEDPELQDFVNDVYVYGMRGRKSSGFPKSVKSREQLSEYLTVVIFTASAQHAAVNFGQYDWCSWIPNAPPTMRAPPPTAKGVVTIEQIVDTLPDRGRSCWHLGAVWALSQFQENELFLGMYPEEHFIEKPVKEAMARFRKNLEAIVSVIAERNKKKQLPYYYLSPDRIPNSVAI
The test is described as follows: Inhibition of 5-LOX.

Test [2] deals with T2, M-phase inducer phosphatase 1 (Homo sapiens, UniProt P30304).
T2 sequence (P30304 whole entry): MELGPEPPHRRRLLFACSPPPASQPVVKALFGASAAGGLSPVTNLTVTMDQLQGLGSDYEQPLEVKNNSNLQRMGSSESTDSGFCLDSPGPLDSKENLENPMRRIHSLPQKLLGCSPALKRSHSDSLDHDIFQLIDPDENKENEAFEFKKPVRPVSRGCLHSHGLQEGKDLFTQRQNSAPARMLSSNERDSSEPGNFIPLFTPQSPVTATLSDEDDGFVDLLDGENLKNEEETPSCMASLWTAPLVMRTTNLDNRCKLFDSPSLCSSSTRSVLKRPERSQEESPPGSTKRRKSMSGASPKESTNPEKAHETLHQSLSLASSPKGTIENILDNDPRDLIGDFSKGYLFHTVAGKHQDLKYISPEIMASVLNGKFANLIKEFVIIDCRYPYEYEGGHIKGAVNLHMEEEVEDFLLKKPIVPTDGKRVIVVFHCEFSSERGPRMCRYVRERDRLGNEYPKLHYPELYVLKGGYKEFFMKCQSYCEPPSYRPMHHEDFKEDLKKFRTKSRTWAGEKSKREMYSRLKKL
The test is described as follows: Inhibition of His-tagged Cdc25A expressed in the Escherichia coli BL21(DE3) using p-nitrophenyl phosphate as substrate for 80 mins by spectrophotometry.

What is called IC50 is the concentration at which inhibition is half-maximal. A low value points to inhibition by little substance. Take `COC1(c2cccc(COc3ccc4ccccc4c3)c2)CCOCC1`: the IC50 in test [1] came out at 1500 nM. The same measure, in the same setting: the figure for `CC(c1ccc(OCc2ccccc2)cc1)N(O)C(N)=O` (centres undefined) is 360 nM; for `c1ccc(COc2ccc3ccccc3c2)cc1` it is 7500 nM. Take `COC(=O)[C@@H]1[C@H]2C[C@H]3c4[nH]c5ccccc5c4CCN3C[C@@H]2CC[C@@H]1O` [YOHIMBINE]: the half-inhibitory concentration (IC50) in test [2] is 22.3 µM.
